Reference: patent US20230086702A1, “SUBSTITUTED 2-AMINO-PYRAZOLYL-[1,2,4]TRIAZOLO[1,5A]PYRIDINE DERIVATIVES AND USE THEREOF” (The Johns Hopkins University, priority 2019, published 2023)

Experiments:
DLK = target: T1, DLK (Homo sapiens, UniProt Q12852); test: DLK biochemical assay (TR-FRET, MKK7 phosphorylation)
T1 construct: 10 nM DLK, catalytic domain, Carna Biosiences; purchased Carna Biosciences ('Carna Biosiences' [sic])
T1 sequence (Q12852 125-366 limits assumed): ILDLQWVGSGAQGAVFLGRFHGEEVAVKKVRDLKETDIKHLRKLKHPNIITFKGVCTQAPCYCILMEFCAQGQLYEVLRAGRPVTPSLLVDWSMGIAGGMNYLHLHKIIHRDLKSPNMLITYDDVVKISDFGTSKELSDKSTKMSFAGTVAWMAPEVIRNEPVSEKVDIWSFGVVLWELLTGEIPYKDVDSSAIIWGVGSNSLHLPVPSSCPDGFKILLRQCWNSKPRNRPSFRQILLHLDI
Procedure, shortened: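 DLK catalytic domain (10 nM) phosphorylates His-MKK7 (15 nM) at 60 μM ATP for 90 min at RT in pH 7.5 Hepes buffer (final concentrations). Phospho-T275/S277 is detected by TR-FRET (Eu anti-phospho donor, XL665 anti-His acceptor) after 16 h at 37° C (1536 format) or 4° C (384 format).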

LZK = target: T2, LZK (Homo sapiens, UniProt O43283); test: LZK biochemical assay (TR-FRET, MKK7 phosphorylation)
T2 construct: 10 nM LZK, catalytic domain, Carna Biosiences in assay buffer; purchased Carna Biosciences ('Carna Biosiences' [sic])
T2 sequence (O43283 168-409 limits assumed): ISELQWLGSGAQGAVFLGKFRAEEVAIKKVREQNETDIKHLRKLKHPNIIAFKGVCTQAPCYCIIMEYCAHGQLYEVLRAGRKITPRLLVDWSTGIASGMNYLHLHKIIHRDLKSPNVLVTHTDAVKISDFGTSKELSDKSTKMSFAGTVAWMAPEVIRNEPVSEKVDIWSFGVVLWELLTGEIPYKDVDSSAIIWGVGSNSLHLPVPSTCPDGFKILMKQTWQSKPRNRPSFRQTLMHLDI
Procedure, shortened: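 LZK catalytic domain (10 nM) phosphorylates His-MKK7 (15 nM) with 15 µM ATP, all final, for 90 min at RT in HEPES buffer pH 7.5 with MgCl2. Phospho-T275/S277 detected by TR-FRET (Eu anti-phospho donor, XL665 anti-His acceptor) after 16 h at 32 °C in EDTA stop buffer. Inhibition lowers the 665/Eu ratio.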

SMILES	IC50 (DLK)	IC50 (LZK)
Nc1nc2c(-c3ccc(=O)n(CC(F)(F)F)c3)cc(-c3cnn(C(c4ccc(C(F)(F)F)nc4)C4CCOCC4)c3)cn2n1 (single isomer, unassigned) [II-161, 5-[2-Amino-6-(1-{tetrahydro-2H-pyran-4-yl[6-(trifluoromethyl)pyridin-3-yl]methyl}-1H-pyrazol-4-yl)[1,2,4]triazolo[1,5-a]pyridin-8-yl]-1-(2,2,2-trifluoroethyl)pyridin-2(1H)-one]	8.5 nM	12 nM
CCC(c1ccc(OC(F)(F)F)nc1)n1cc(-c2cc(-c3ccc(=O)n(CC(F)(F)F)c3)c3nc(N)nn3c2)cn1 (single isomer, unassigned) [II-165, 5-[2-Amino-6-(1-{1-[6-(trifluoromethoxy)pyridin-3-yl]propyl}-1H-pyrazol-4-yl)[1,2,4]triazolo[1,5-a]pyridin-8-yl]-1-(2,2,2-trifluoroethyl)pyridin-2(1H)-one]	26 nM	57 nM
Nc1nc2c(-c3cn(CC(F)(F)F)c(=O)cn3)cc(-c3cnn(C(c4ccc(C(F)(F)F)nc4)C4CCOCC4)c3)cn2n1 (single isomer, unassigned) [II-168, 5-[2-Amino-6-(1-{tetrahydro-2H-pyran-4-yl[6-(trifluoromethyl)pyridin-3-yl]methyl}-1H-pyrazol-4-yl)[1,2,4]triazolo[1,5-a]pyridin-8-yl]-1-(2,2,2-trifluoroethyl)pyrazin-2(1H)-one]	17 nM	77 nM
CCC(c1ccc(C(F)(F)F)nc1)n1cc(-c2cc(-c3ccn(C)c(=O)c3)c3nc(N)nn3c2)cn1 (single isomer, unassigned) [II-170, 4-[2-Amino-6-(1-{1-[6-(trifluoromethyl)pyridin-3-yl]propyl}-1H-pyrazol-4-yl)[1,2,4]triazolo[1,5-a]pyridin-8-yl]-1-methylpyridin-2(1H)-one]	73 nM	220 nM
CCC(c1ccc(C(F)(F)F)nc1)n1cc(-c2cc(-c3ccn(C)c(=O)c3)c3nc(N)nn3c2)cn1 (single isomer, unassigned) [II-171, 4-[2-Amino-6-(1-{1-[6-(trifluoromethyl)pyridin-3-yl]propyl}-1H-pyrazol-4-yl)[1,2,4]triazolo[1,5-a]pyridin-8-yl]-1-methylpyridin-2(1H)-one]	9.3 nM	41 nM
Nc1nc2c(-c3ccn(CC(F)F)c(=O)c3)cc(-c3cnn(C(c4ccc(C(F)(F)F)nc4)C4CCOCC4)c3)cn2n1 (single isomer, unassigned) [II-173, 4-[2-Amino-6-(1-{tetrahydro-2H-pyran-4-yl[6-(trifluoromethyl)pyridin-3-yl]methyl}-1H-pyrazol-4-yl)[1,2,4]triazolo[1,5-a]pyridin-8-yl]-1-(2,2-difluoroethyl)pyridin-2(1H)-one]	11 nM	25 nM
Nc1nc2c(-c3ccn(CC(F)(F)F)c(=O)c3)cc(-c3cnn(C(c4ccc(C(F)(F)F)nc4)C4CCOCC4)c3)cn2n1 (single isomer, unassigned) [II-177, 4-[2-Amino-6-(1-{tetrahydro-2H-pyran-4-yl[6-(trifluoromethyl)pyridin-3-yl]methyl}-1H-pyrazol-4-yl)[1,2,4]triazolo[1,5-a]pyridin-8-yl]-1-(2,2,2-trifluoroethyl)pyridin-2(1H)-one]	10 nM	33 nM
CCC(c1ccc(C(F)(F)F)nc1)n1cc(-c2cc(-c3ccc(=O)n(C(F)F)c3)n3nc(N)nc3c2)cn1 (single isomer, unassigned) [II-180, 5-[2-Amino-7-(1-{1-[6-(trifluoromethyl)pyridin-3-yl]propyl}-1H-pyrazol-4-yl)[1,2,4]triazolo[1,5-a]pyridin-5-yl]-1-(difluoromethyl)pyridin-2(1H)-one]	34 nM	79 nM
Nc1nc2cc(-c3cnn(C(c4ccc(C(F)(F)F)nc4)C4CCOCC4)c3)cc(-c3ccc(=O)n(C(F)F)c3)n2n1 (single isomer, unassigned) [II-183, 5-[2-Amino-7-(1-{tetrahydro-2H-pyran-4-yl[6-(trifluoromethyl)pyridin-3-yl]methyl}-1H-pyrazol-4-yl)[1,2,4]triazolo[1,5-a]pyridin-5-yl]-1-(difluoromethyl)pyridin-2(1H)-one]	22 nM	19 nM

Stronger by IC50 (DLK), values ahead:

IC50 (DLK)	IC50 (LZK)	SMILES
0.4 nM	1.2 nM	Nc1nc2c(-c3ccc(=O)n(CC(F)F)c3)cc(-c3cnn(C(c4ccc(C(F)(F)F)nc4)C4CCOCC4)c3)cn2n1 (single isomer, unassigned) [II-158, 5-[2-Amino-6-(1-{tetrahydro-2H-pyran-4-yl[6-(trifluoromethyl)pyridin-3-yl]methyl}-1H-pyrazol-4-yl)[1,2,4]triazolo[1,5-a]pyridin-8-yl]-1-(2,2-difluoroethyl)pyridin-2(1H)-one]
3.5 nM	17 nM	CCC(c1ccc(OC(F)(F)F)nc1)n1cc(-c2cc(-c3ccc(=O)n(CC(F)(F)F)c3)c3nc(N)nn3c2)cn1 (single isomer, unassigned) [II-164, 5-[2-Amino-6-(1-{1-[6-(trifluoromethoxy)pyridin-3-yl]propyl}-1H-pyrazol-4-yl)[1,2,4]triazolo[1,5-a]pyridin-8-yl]-1-(2,2,2-trifluoroethyl)pyridin-2(1H)-one]
1.3 nM	9.9 nM	Nc1nc2c(-c3cn(CC(F)(F)F)c(=O)cn3)cc(-c3cnn(C(c4ccc(C(F)(F)F)nc4)C4CCOCC4)c3)cn2n1 (single isomer, unassigned) [II-167, 5-[2-Amino-6-(1-{tetrahydro-2H-pyran-4-yl[6-(trifluoromethyl)pyridin-3-yl]methyl}-1H-pyrazol-4-yl)[1,2,4]triazolo[1,5-a]pyridin-8-yl]-1-(2,2,2-trifluoroethyl)pyrazin-2(1H)-one]
1 nM	4.3 nM	Nc1nc2c(-c3ccn(CC(F)F)c(=O)c3)cc(-c3cnn(C(c4ccc(C(F)(F)F)nc4)C4CCOCC4)c3)cn2n1 (single isomer, unassigned) [II-174, 4-[2-Amino-6-(1-{tetrahydro-2H-pyran-4-yl[6-(trifluoromethyl)pyridin-3-yl]methyl}-1H-pyrazol-4-yl)[1,2,4]triazolo[1,5-a]pyridin-8-yl]-1-(2,2-difluoroethyl)pyridin-2(1H)-one]
1.6 nM	5.6 nM	Nc1nc2c(-c3ccn(CC(F)(F)F)c(=O)c3)cc(-c3cnn(C(c4ccc(C(F)(F)F)nc4)C4CCOCC4)c3)cn2n1 (single isomer, unassigned) [II-176, 4-[2-Amino-6-(1-{tetrahydro-2H-pyran-4-yl[6-(trifluoromethyl)pyridin-3-yl]methyl}-1H-pyrazol-4-yl)[1,2,4]triazolo[1,5-a]pyridin-8-yl]-1-(2,2,2-trifluoroethyl)pyridin-2(1H)-one]
2.7 nM	5.4 nM	CCC(c1ccc(C(F)(F)F)nc1)n1cc(-c2cc(-c3ccc(=O)n(C(F)F)c3)n3nc(N)nc3c2)cn1 (single isomer, unassigned) [II-181, 5-[2-Amino-7-(1-{1-[6-(trifluoromethyl)pyridin-3-yl]propyl}-1H-pyrazol-4-yl)[1,2,4]triazolo[1,5-a]pyridin-5-yl]-1-(difluoromethyl)pyridin-2(1H)-one]
1.2 nM	2.4 nM	Nc1nc2cc(-c3cnn(C(c4ccc(C(F)(F)F)nc4)C4CCOCC4)c3)cc(-c3ccc(=O)n(C(F)F)c3)n2n1 (single isomer, unassigned) [II-184, 5-[2-Amino-7-(1-{tetrahydro-2H-pyran-4-yl[6-(trifluoromethyl)pyridin-3-yl]methyl}-1H-pyrazol-4-yl)[1,2,4]triazolo[1,5-a]pyridin-5-yl]-1-(difluoromethyl)pyridin-2(1H)-one]
4.1 nM	4.5 nM	Nc1nc2cc(-c3cnn(C(c4ccc(C(F)(F)F)nc4)C4CCOCC4)c3)cc(-c3ccc(=O)n(CC(F)F)c3)n2n1 (single isomer, unassigned) [II-186, 5-[2-Amino-7-(1-{tetrahydro-2H-pyran-4-yl[6-(trifluoromethyl)pyridin-3-yl]methyl}-1H-pyrazol-4-yl)[1,2,4]triazolo[1,5-a]pyridin-5-yl]-1-(2,2-difluoroethyl)pyridin-2(1H)-one]
0.2 nM	0.5 nM	Nc1nc2cc(-c3cnn(C(c4ccc(C(F)(F)F)nc4)C4CCOCC4)c3)cc(-c3ccc(=O)n(CC(F)F)c3)n2n1 (single isomer, unassigned) [II-187, 5-[2-Amino-7-(1-{tetrahydro-2H-pyran-4-yl[6-(trifluoromethyl)pyridin-3-yl]methyl}-1H-pyrazol-4-yl)[1,2,4]triazolo[1,5-a]pyridin-5-yl]-1-(2,2-difluoroethyl)pyridin-2(1H)-one]
